{
  "source": "patent US20230174571A1",
  "about": "“METHOD OF TREATING SHIP1-MEDIATED DISEASES USING PELOROL DERIVATIVES” (Zebrapeutics Inc., priority 2020, published 2023)",
  "key": {"[1]": {"system": "ConA-induced liver injury", "experiment": "ConA-induced liver injury model", "assay_type": "in vivo, mouse", "excerpt": "Concanavalin A (ConA) induced liver injury model is an immune-mediated liver injury model, resembling viral and autoimmune hepatitis in humans. Intravenous delivery of ConA in mice is known to activate T cells, resulting in increased inflammatory cytokines such as TNF-α, IFN-r and IL-6 as well as decreased anti-inflammatory cytokine IL-10. The T cell infiltration into the liver leads to consequences of hepatocyte apoptosis and necrosis, resulting in increased levels of liver enzymes ALT and AST in plasma. (Zhou 2015) Methods: Five groups (n=5 each) of C57 mice were treated with a blank control, compound I-1 alone (10 mg/kg/d), ConA (15 mg/kg), ConA+compound I-1 (3 mg/kg/d) or ConA+compound I-1 (10 mg/kg/d). In each instance, compound I-1 was given 5 days before ConA injection (if applicable) via oral gavage twice a day. One hour after the last drug administration, ConA (15 mg/kg) was delivered intravenously. 12 hours after the ConA injection, orbital blood was taken from the eye and the enzyme biochemistry (plasma) and blood cell type tests were performed by analyzers."}, "CLP-induced sepsis": {"system": "CLP-induced sepsis", "experiment": "Caecum Ligation and Puncture (CLP) sepsis model", "assay_type": "in vivo, mouse", "conditions": "CLP mice, oral gavage; vs. 20% in CLP group without drug", "excerpt": "The mouse CLP model is well-accepted clinically relevant method for anti-sepsis drug testing. The surgical operation included opening of the mouse abdomen, ligation of the cecum and puncture of the ligated cecum with a needle. Rittirsch, 2009 Method was followed to induce Mid to High grade experimental sepsis to achieve 70-100% […] rate over 7 days after CLP operation.\nMethods: Five groups (n=10 each) of mice were designed with (1) a blank control, (2) Sham control (abdomen operation was performed but without cecal ligation/puncture), (3) CLP group (operation with cecal ligation/puncture), (4) CLP+compound I-1 (MN100) (3 mg/kg/d), and (5) CLP+compound I-1 (MN100) (10 mg/kg/d). ZPR-MN100 (compound I-1) was given 3 days before CLP operation and continued to 7 days after CLP. ZPR-MN100 was delivered via oral gavage twice a day. […] Mouse condition and survival were recorded every day. Seven days after CLP, the experiment was terminated and survival curves were drawn using GraphPad Prism."}, "PAC2-K681A": {"molecular_target": "T1, PAC2-K681A (Mus musculus, UniProt Q9ES52, K681A)", "T1 construct": "PAC1 and PAC2 consists of phosphatase and C2 domain (residues aa 402-861 and aa 402-857 respectively); made in house; host or cells: E. coli BL21 co-transformed with pBirAcm", "T1 sequence (Q9ES52 402-857 K681A)": "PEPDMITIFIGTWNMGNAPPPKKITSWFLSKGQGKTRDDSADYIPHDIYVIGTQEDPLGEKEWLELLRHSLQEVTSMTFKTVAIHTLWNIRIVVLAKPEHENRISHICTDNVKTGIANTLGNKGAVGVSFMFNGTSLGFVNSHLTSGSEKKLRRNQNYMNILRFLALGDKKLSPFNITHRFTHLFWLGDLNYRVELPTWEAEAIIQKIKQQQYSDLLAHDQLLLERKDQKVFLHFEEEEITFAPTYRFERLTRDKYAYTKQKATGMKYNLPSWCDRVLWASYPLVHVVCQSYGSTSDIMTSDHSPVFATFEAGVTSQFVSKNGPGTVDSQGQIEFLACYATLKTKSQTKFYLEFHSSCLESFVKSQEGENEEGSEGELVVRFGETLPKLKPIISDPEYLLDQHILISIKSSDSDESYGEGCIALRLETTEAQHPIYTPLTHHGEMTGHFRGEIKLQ", "experiment": "Biolayer interferometry, PAC2-K681A", "assay_type": "binding", "conditions": "20 μM analyte; K681A vs wild-type PAC2", "experimental": "Expression of PAC2-Avi tag for Biolayer interferometry. A sequence corresponding to Avi-tag ([…]) was added to the c-terminal end of the PAC2 in LIC-HMT-PAC2 expressing vector via standard restriction digestion and ligation. The LIC-HMT-PAC2-Avi expressing vector was then co-transformed into E. coli BL21 cells with pBirAcm expression vector in 1:1 molar ratio. Overnight culture was inoculated with a 250-fold dilution to start the actual culture. The cells were grown at 37° C. in LB medium (supplemented with 50 μg/mL of kanamycin and 10 μg/mL of chloramphenicol) with shaking speed of 225 rpm. When OD600 reached about 0.6, 5 mM of biotin in bicine buffer pH 8.3 was added to the culture to have final concentration of 125 μM of biotin. The culture was then cooled down to room temperature before the addition of 0.4 mM isopropyl-B-D-1-thiogalactopyranoside (IPTG) to induce the expression of the recombinant protein with Avi-tag. The rest of the method is identical as written in “Expression of PAC2 for crystallography”.\nBiolayer interferometry. […] The association was measured for 600 s at an analyte concentration of 20 μM followed by dissociation for 300 s in the same buffer as the baseline. The raw data was analyzed using the Octet Red Data Analysis software (ver. 8.2). […]"}, "[2]": {"conditions": "C57 mice, ConA 15 mg/kg i.v., compound 3 or 10 mg/kg/d oral gavage, 12 hours after ConA"}, "[3]": {"conditions": "repeat experiment, 10 mg/kg/d, dexamethasone 0.5 mg/kg/d as positive control"}},
  "data": [
    {"compound": "Cc1cc(O)cc2c1C1(C)CCC3C(C)(C)CCCC3(C)C1C2", "note": "(centres unmarked) [Compound I-1]", "values": [
      {"measurement": "BUN", "setting": "[1]; [2]", "result": "significantly reduced"},
      {"measurement": "TBIL", "setting": "[1]; [2]", "result": "significantly reduced"},
      {"measurement": "plasma ALT", "setting": "[1]; [2]", "result": "significantly reduced"},
      {"measurement": "plasma AST", "setting": "[1]; [2]", "result": "significantly reduced"},
      {"measurement": "ConA-induced ALT level", "setting": "[1]; [3]", "result": "significantly lowered"},
      {"measurement": "ConA-induced AST level", "setting": "[1]; [3]", "result": "significantly lowered"},
      {"measurement": "7-day survival rate", "setting": "CLP-induced sepsis", "result": 50, "unit": "%"}
    ]},
    {"compound": "CC12CCC3C(C)(C)C(N)CCC3(C)C1Cc1cc(O)cc(O)c12", "note": "(centres unmarked) [Compound I-2]", "values": [
      {"measurement": "binding to PAC2 with K681A substitution (BLI)", "setting": "PAC2-K681A", "result": "impairs"}
    ]}
  ]
}
